Reference: patent US12686665B2, “Bicyclic fused ring derivative or salt thereof and pharmaceutical composition comprising same” (YUHAN CORPORATION, priority 2021, dated 2026)
Where a name gives a salt, the structure may show the parent alone.

Key:
Type in all cases: biochemical
[1] = target: T1, recombinant human MAO-A (monoamine oxidase-A) (Homo sapiens, UniProt P21397); test: Amplex Red HRP-coupled amine oxidase assay, recombinant human MAO-A; conditions: 0.5 mM tyramine substrate, read-out: Inhibitory activity (IC50, nM) MAO-A
T1 construct: purchased Sigma-Aldrich
T1 sequence (P21397 1-527): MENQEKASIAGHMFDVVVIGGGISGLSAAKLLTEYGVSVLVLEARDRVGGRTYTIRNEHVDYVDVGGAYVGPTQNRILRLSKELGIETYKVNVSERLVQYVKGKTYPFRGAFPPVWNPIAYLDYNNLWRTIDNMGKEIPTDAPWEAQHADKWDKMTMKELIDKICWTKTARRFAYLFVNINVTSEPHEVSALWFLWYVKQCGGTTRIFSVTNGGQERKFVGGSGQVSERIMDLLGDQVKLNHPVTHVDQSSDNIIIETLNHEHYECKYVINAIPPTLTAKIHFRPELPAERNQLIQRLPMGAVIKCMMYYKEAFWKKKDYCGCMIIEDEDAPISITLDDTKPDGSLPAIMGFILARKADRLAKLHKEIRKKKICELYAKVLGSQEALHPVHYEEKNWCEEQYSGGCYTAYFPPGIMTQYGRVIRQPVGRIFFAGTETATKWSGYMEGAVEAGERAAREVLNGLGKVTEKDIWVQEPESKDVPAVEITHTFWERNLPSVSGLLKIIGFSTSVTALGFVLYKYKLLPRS
Method: (§1) The activities of the compounds according to the present invention against recombinant human Lysyl Oxidase-Like 2 (recombinant human LOXL2, R&D systems) were evaluated by measuring the levels of hydrogen peroxide in the HRP (horseradish peroxidase) coupled reactions, with the Amplex Red Hydrogen Peroxide Assay Kit (Molecular Probes, Invitrogen, USA). The tests were carried out at 37° C., and putrescine was used as a substrate. In the HRP coupling reaction, the oxidation of 10-acetyl-3,7-dihydroxyphenoxazine (Amplex Red reagent) by hydrogen peroxide generates a fluorescent product, i.e., resorufin. Briefly, the test compounds were dissolved in dimethyl sulfoxide (DMSO) at a concentration of 20 mM. Dose-response measurements were carried out by serial dilutions in DMSO to generate a six-point curve. The upper concentration was adjusted according to the potency of the compound, and then diluted with the reaction buffer to obtain a final DMSO concentration of 1%. Purified human LOXL2 in 50 mM sodium phosphate buffer (pH7.4) was added to each well of a 96 well black plate. The test compounds dissolved in DMSO were incubated with the human LOXL2 enzyme at 37° C. for 60 minutes. After the incubation for 60 minutes, a reaction mixture containing 400 μM Amplex Red reagent, 30 mM putrescine, and 2 U/mL HRP in 50 mM sodium phosphate buffer (pH 7.4) was added to each well. Fluorescence was measured with a microplate reader (Flexstation3, Molecular Devices), under the conditions of excitation at 530 nm and emission at 590 nm, 1 hour after the addition of the mixture. Inhibition by each compound was measured as % reduction in signal, compared to the control without an inhibitor (diluted DMSO only). The data were fixed to a four-variable logistic model, and […] values were calculated using the GraphPad Prism program.
(§2) And, the activities of the compounds according to the present invention against recombinant human MAO-A (monoamine oxidase-A, Sigma-Aldrich) and recombinant human MAO-B (monoamine oxidase-B, Sigma-Aldrich) were evaluated in a similar manner to the activity evaluation method for recombinant human LOXL2, using 0.5 mM tyramine and 1 mM benzylamine as a substrate, respectively. In addition, the activities of the compounds according to the present invention against recombinant human DAO (diamine oxidase, R&D systems) were evaluated in a similar manner to the activity evaluation method for recombinant human LOXL2, using 1 mM putrescine as a substrate.

[2] = target: T2, recombinant human Lysyl Oxidase-Like 2 (LOXL2) (Homo sapiens, UniProt Q9Y4K0); test: Amplex Red HRP-coupled amine oxidase assay, recombinant human LOXL2; conditions: 60 min incubation with enzyme at 37° C., putrescine substrate, read-out: Inhibitory activity (IC50, nM) human LOXL2
T2 construct: purchased R&D systems
T2 sequence (Q9Y4K0 26-774): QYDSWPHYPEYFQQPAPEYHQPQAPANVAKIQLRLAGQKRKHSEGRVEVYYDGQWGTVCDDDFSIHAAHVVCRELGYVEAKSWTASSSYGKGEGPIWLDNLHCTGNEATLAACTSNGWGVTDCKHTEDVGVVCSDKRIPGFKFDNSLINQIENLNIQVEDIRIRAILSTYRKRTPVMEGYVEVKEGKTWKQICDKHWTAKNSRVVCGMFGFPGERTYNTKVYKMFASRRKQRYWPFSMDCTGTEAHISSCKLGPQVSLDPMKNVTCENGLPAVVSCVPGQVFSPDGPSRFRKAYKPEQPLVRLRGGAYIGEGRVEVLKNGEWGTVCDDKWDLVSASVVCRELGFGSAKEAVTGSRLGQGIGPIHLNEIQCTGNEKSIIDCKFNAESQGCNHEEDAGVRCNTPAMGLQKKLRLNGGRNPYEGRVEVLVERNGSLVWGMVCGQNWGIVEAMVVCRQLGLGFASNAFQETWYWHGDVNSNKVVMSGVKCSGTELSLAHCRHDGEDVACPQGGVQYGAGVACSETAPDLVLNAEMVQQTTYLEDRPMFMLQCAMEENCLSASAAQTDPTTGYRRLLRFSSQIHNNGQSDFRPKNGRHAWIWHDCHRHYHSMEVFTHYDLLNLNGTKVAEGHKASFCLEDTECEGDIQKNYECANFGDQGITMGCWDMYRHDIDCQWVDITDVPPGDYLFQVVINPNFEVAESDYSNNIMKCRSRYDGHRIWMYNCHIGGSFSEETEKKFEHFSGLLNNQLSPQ
In short: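 Putrescine substrate (30 mM) in 50 mM sodium phosphate pH 7.4, 37 °C; compounds preincubated 60 min with enzyme, 1% DMSO final, six-point curves. H2O2 detected via 400 μM Amplex Red/2 U/mL HRP, fluorescence (ex 530/em 590 nm) after 1 h; IC50 from four-parameter logistic fit of % signal reduction.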

[3] = target: T3, recombinant human MAO-B (monoamine oxidase-B) (Homo sapiens, UniProt P27338); test: Amplex Red HRP-coupled amine oxidase assay, recombinant human MAO-B; conditions: 1 mM benzylamine substrate, read-out: Inhibitory activity (IC50, nM) MAO-B
T3 construct: purchased Sigma-Aldrich
T3 sequence (P27338 1-520): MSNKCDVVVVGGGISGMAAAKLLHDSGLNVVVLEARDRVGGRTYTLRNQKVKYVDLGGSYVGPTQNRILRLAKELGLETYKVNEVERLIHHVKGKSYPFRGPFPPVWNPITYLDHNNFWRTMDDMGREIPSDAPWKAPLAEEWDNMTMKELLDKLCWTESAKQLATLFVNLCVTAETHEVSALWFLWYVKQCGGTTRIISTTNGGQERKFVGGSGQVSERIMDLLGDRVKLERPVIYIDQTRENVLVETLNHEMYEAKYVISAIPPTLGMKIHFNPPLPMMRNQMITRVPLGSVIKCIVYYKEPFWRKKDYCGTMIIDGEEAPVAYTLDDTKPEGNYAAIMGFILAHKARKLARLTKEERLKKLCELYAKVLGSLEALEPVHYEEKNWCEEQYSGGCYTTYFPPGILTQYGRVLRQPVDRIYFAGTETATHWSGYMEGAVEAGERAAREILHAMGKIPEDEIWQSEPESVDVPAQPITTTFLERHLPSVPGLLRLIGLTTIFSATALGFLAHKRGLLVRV
Method: as §1, §2

[4] = target: T4, recombinant human DAO (diamine oxidase) (Homo sapiens, UniProt P19801); test: Amplex Red HRP-coupled amine oxidase assay, recombinant human DAO; conditions: 1 mM putrescine substrate, read-out: Inhibitory activity (IC50, nM) DAO
T4 construct: purchased R&D systems
T4 sequence (P19801 20-751): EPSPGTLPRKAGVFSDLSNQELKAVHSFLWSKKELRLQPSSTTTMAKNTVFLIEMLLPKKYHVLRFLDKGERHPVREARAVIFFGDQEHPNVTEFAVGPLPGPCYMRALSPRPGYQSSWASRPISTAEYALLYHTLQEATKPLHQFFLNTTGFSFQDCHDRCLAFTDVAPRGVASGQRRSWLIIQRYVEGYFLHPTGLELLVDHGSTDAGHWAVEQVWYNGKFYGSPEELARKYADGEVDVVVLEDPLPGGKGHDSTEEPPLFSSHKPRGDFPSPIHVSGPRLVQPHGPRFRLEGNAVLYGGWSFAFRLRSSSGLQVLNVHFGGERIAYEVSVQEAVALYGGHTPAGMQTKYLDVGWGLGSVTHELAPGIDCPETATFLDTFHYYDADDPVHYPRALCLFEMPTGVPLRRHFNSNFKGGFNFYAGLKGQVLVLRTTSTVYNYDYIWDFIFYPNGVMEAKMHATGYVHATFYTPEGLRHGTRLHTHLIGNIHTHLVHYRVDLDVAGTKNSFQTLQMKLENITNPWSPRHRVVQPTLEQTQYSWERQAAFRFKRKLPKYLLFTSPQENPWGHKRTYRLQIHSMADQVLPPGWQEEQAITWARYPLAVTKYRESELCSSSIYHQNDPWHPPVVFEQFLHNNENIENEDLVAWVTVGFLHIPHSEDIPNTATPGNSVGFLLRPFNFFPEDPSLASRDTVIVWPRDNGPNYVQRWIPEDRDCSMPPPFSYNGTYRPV
Method: as §1, §2

With `COC(=O)c1cc(-c2cccc(S(=O)(=O)N3CCC(F)(F)C3)c2)c2ncn(C/C(F)=C/CN)c2c1` [Example 22, methyl (Z)-1-(4-amino-2-fluorobut-2-en-1-yl)-4-(3-((3,3-difluoropyrrolidine-1-yl)sulfonyl)phenyl)-1H-benzo[d]imidazol-6-carboxylate hydrochloride] the IC50 [1] was 53300 nM, the IC50 [2] was 19.9 nM and the IC50 [3] was > 100000 nM. The IC50 [4] was 5070 nM.
In the case of `NC/C=C(\F)Cn1cnc2c(-c3cncnc3)cc(C(F)(F)F)cc21` [Example 175, (Z)-3-fluoro-4-(4-(pyrimidin-5-yl)-6-(trifluoromethyl)-1H-benzo[d]imidazol-1-yl)but-2-en-1-amine hydrochloride], the IC50 [1] was > 100000 nM, the IC50 [2] was 259 nM and the IC50 [3] was > 100000 nM. The IC50 [4] was 2580 nM.
For `COC(=O)c1cc(-c2cc(S(=O)(=O)C(F)(F)F)ccc2C)c2ncn(C/C(F)=C/CN)c2c1` [Example 35, methyl (Z)-1-(4-amino-2-fluorobut-2-en-1-yl)-4-(2-methyl-5-((trifluoromethyl)sulfonyl)phenyl)-1H-benzo[d]imidazol-6-carboxylate hydrochloride], the IC50 [1] was > 100000 nM, the IC50 [2] was 67.6 nM and the IC50 [3] was > 100000 nM. The IC50 [4] was 47700 nM.
`COC(=O)c1cc(-c2cccc(S(C)(=O)=O)c2)c2ncn(C/C(F)=C/CN)c2c1` [Example 25, methyl (Z)-1-(4-amino-2-fluorobut-2-en-1-yl)-4-(3-(methylsulfonyl)phenyl)-1H-benzo[d]imidazol-6-carboxylate hydrochloride] was tested, and the IC50 [1] was > 100000 nM, the IC50 [2] was 22.7 nM and the IC50 [3] was > 100000 nM. For the same compound, the IC50 [4] was 1230 nM.
In the case of `CNS(=O)(=O)c1ccc(OC)c(-c2cccc3c2nnn3C/C(F)=C/CN)c1` [Example 105, (Z)-3-(1-(4-amino-2-fluorobut-2-en-1-yl)-1H-benzo[d][1,2,3]triazol-4-yl)-4-methoxy-N-methylbenzenesulfonamide hydrochloride], the IC50 [1] was 55100 nM, the IC50 [2] was 26 nM and the IC50 [3] was > 100000 nM. It also gave an IC50 [4] of 36000 nM.
With `CS(=O)(=O)c1cccc(-c2cc(F)cc3c2ncn3C/C(F)=C/CN)c1` [Example 3, (Z)-3-fluoro-4-(6-fluoro-4-(3-(methylsulfonyl)phenyl)-1H-benzo[d]imidazol-1-yl)but-2-en-1-amine hydrochloride] the IC50 [1] was > 100000 nM, the IC50 [2] was 54 nM and the IC50 [3] was 71200 nM. For the same compound, the IC50 [4] was 2940 nM.
`CNS(=O)(=O)c1cccc(-c2cc(C(=O)OC)cc3c2nc(C)n3C/C(F)=C/CN)c1` [Example 73, methyl (Z)-1-(4-amino-2-fluorobut-2-en-1-yl)-2-methyl-4-(3-(N-methylsulfamoyl)phenyl)-1H-benzo[d]imidazol-6-carboxylate hydrochloride] was tested, and the IC50 [1] was 47900 nM, the IC50 [2] was 58 nM and the IC50 [3] was > 100000 nM. The IC50 [4] was 1810 nM.
In the case of `CCS(=O)(=O)c1cccc(-c2cc(C(=O)OC)cc3c2ncn3C/C(F)=C/CN)c1` [Example 34, methyl (Z)-1-(4-amino-2-fluorobut-2-en-1-yl)-4-(3-(ethylsulfonyl)phenyl)-1H-benzo[d]imidazol-6-carboxylate hydrochloride], the IC50 [1] was > 100000 nM, the IC50 [2] was 37.6 nM and the IC50 [3] was > 100000 nM. For the same compound, the IC50 [4] was 495 nM.
For `NC/C=C(\F)Cn1cnc2c(-c3cncc(F)c3)cc(C(F)(F)F)cc21` [Example 173, (Z)-3-fluoro-4-(4-(5-fluoropyridin-3-yl)-6-(trifluoromethyl)-1H-benzo[d]imidazol-1-yl)but-2-en-1-amine hydrochloride], the IC50 [1] was 15400 nM, the IC50 [2] was 269 nM and the IC50 [3] was > 100000 nM. The IC50 [4] was 3730 nM.
For `COC(=O)c1cc(-c2cccc(S(=O)(=O)NC3CC3)c2)c2ncn(C/C(F)=C/CN)c2c1` [Example 29, methyl (Z)-1-(4-amino-2-fluorobut-2-en-1-yl)-4-(3-(N-cyclopropylsulfamoyl)phenyl)-1H-benzo[d]imidazol-6-carboxylate hydrochloride], the IC50 [1] was > 100000 nM, the IC50 [2] was 34.9 nM and the IC50 [3] was > 100000 nM. It also gave an IC50 [4] of 1370 nM.
